Legend:
Tdp1 = molecular target: T1, Tdp1 (Homo sapiens, UniProt Q9NUW8); experiment: Real-time detection of Tdp1 activity (FAM/BHQ1 oligonucleotide biosensor); type: biochemical; conditions: for IC50: Tdp1 inhibition, 6-point concentration response curve; for Tdp1 inhibitory activity (in words): compared with the other derivatives of the series
T1 construct: made in house
Description: A previously designed, real-time, hexadecameric oligonucleotide biosensor with 5(6)-carboxyfluorescein (FAM) at the 5′ end and fluorophore quencher BHQ1 (Black Hole Quencher-1) at the 3′-end was used to determine the inhibitory properties of the new compounds.
Real-Time Detection of Tdp1 Activity. The Tdp1 activity measurements were carried out as described. […] Tdp1 inhibition was calculated by comparing the rate of increase in fluorescence in the presence of the compound to that of DMSO control wells. IC50 values were determined using a 6-point concentration response curve. The data were imported into the MARS Data Analysis 2.0 program (BMG LABTECH), and the slope during the linear phase (here data from 0 to 7 min) was calculated.

Lewis carcinoma = experiment: Lifespan of mice with ascites variant of Lewis carcinoma; type: in vivo; conditions: for prolongation of life: monotherapy at selected doses (tpc 0.5 mg/kg or 3ba 120 mg/kg), unreliable, p > 0.05; for increase in lifespan: tpc + 3ba 120 mg/kg
Description: We then examined the effect of 3ba in combination with tpc on the lifespan of mice. C57BL/6 mice were intraperitoneally inoculated with the ascites variant of Lewis carcinoma. Group 1: control without treatment; group 2: tpc 0.5 mg/kg intraperitoneally; group 3: tpc and 3ba intraperitoneally 120 mg/kg; and group 4: 3ba 120 mg/kg only.
(§1) Lab animals. Thre-e to four-month-old male and female C57Bl/6 mice from the breeding colony of the Institute of Cytology and Genetics, SB RAS, were used in the study. The animals were kept on sawdust in plastic cages with 5–7 mice per cage, with free access to ground food (“Laboratorkorm”, Moskow, Russia) and tap water. All experiments were performed in accordance with protocols approved by the Animal Care and Use Committee of the Institute of Cytology and Genetics. Also, all experimental procedures were performed in accordance with the Directive 2010/63/EU for animal experiments.
(§2) Tumor models. The experimental tumor used was Lewis Lung Carcinoma (LLC) and Krebs-2. The animals were treated with tpc and the Tdp1 inhibitor 3ba two days after tumor transplantation. The tumor was transplanted into the muscles of the thigh by 0.2 million cells per mouse. Tpc (Sindan Pharma SRL, Romania) was administered intraperitoneally at a single dose of 0.5 mg/kg; Tdp1 inhibitor 3ba was administrated intraperitoneally at a single dose of 20, 40, or 80 mg/kg (for Krebs-2), or 120 mg/kg (for LLC) in 15% dimethyl sulfoxide (DMSO)–10% Tween-80 suspension in water (0.2 mL of suspension per mouse) simultaneously with tpc. Control mice were injected with a DMSO-Tween-80 mixture into the stomach.
(§3) Statistical analysis. The experimenter measuring and calculating the primary animal data (tumor size, lifespan) was blinded. After unblinding, the animal data were statistically processed using oneway ANOVA. Post-hoc testing was completed using Turkey’s Honestly Significant Difference (HSD). p < 0.05 was considered to be statistically significant. The statistical package […] version 12.5 was used for analysis. All results are expressed as mean ± SEM.

[1] = molecular target: T2, human Tdp1 (residues 149-608) (Homo sapiens, UniProt Q9NUW8); experiment: Intrinsic tryptophan fluorescence quenching binding assay; conditions: Tdp1 10 µM, 20 mM Tris, 250 mM NaCl, pH 8; triplicate; read-out: dissociation constant (KD)
T2 construct: human Tdp1 (residues 149-608); made in house; host or cells: Escherichia coli BL21 (DE3)
Description: Derivatives of nopol were the most complex compounds to synthesize and purify. Therefore, they were excluded from further consideration. Since we previously obtained contradictory results in in vivo experiments with the myrtenol derivative 2 (unpublished data), in this work, we decided to focus on geraniol derivatives for the in vivo studies. […] In addition to the activity assay that we reported above, we wanted to confirm the interactions between compound 3ba and Tdp1 before progressing to in vivo studies. Using an intrinsic tryptophan fluorescence quenching assay that we previously applied to study the binding interactions of Tdp1 and its inhibitors, we evaluated the binding of compound 3ba to recombinant Tdp1. Clear quenching of the Tdp1 intrinsic fluorescence was observed upon the addition of 3ba (Supplementary Figure S1). […]
Binding Assay. […] Intrinsic protein fluorescence was measured using PerkinElmer EnSpire Multimode Reader. […] The excitation wavelength was 280 nm and the intrinsic fluorescence was measured at 350 nm. […] Dissociation constants (KD) were calculated using the following formula, that takes nonspecific binding into account. […]
In this formula, I indicates changes in fluorescence intensity from the titration, Imax indicates the maximum fluorescence intensity change, [Lᴛ] is the titration ligand concentration, and Ns is the non-specific term. […]

Krebs-2 carcinoma = experiment: Influence on antitumor effect of tpc, Krebs-2 ascites tumor model; type: in vivo, mice; conditions: for weight of the ascitic tumor: compared to only tpc
Description: A study of the influence of 3ba on the antitumor effect of tpc (topotecan) was performed using a murine Krebs-2 carcinoma model. An ascitic tumor model combines the advantages of in vitro and in vivo approaches in studying the cytotoxic effect of compounds, since ascitic cells grow in the context of the organism (in vivo), and the intraperitoneal administration of drug ensures its direct contact with tumor cells (in vitro). The experiments were performed using female C57BL/6 mice, which were injected intraperitoneally with 2 × 10^5 ascitic cells on day zero. The mice were divided into six groups of ten animals each.
as §1, §2, §3

T1 sequence (Q9NUW8 whole entry): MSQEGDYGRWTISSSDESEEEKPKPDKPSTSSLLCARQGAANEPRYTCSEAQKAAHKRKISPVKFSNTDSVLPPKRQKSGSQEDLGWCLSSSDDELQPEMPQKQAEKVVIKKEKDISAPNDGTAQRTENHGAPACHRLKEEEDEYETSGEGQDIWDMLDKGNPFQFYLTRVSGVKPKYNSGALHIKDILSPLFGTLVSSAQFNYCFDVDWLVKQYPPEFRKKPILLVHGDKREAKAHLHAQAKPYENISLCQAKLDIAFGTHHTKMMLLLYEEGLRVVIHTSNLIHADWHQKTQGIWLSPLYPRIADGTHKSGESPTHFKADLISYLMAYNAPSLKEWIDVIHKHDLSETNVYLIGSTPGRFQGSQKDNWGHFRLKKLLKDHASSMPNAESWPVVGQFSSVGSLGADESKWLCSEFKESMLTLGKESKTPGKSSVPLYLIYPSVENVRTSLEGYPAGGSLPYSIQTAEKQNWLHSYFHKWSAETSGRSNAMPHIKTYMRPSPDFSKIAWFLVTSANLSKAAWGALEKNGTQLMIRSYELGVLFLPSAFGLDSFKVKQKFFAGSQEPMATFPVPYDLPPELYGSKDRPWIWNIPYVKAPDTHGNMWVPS
T2 sequence (Q9NUW8 149-608): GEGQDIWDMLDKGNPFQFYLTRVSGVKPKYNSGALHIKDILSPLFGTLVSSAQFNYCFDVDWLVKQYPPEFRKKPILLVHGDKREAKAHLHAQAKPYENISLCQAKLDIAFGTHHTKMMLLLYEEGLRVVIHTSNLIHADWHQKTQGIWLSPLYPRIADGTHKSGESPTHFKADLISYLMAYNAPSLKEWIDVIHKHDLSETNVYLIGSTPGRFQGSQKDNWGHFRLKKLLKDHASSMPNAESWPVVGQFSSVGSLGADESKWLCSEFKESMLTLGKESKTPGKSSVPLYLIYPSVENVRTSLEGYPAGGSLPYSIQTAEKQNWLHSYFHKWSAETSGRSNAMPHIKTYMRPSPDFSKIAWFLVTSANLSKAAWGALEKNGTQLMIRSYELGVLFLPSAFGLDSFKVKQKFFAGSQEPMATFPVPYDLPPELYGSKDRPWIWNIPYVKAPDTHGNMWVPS

For `CC(C)=CCC/C(C)=C/COc1ccc2c(-c3ccccc3)cc(=O)oc2c1` [3aa, (E)-7-(3,7-Dimethylocta-2,6-dienyloxy)-4-phenyl-2H-chromen-2-one], the IC50 (Tdp1) was 490 ± 140 nM.
Molecule `CC1(C)[C@H]2CC=C(CCOc3ccc4c(-c5ccccc5)cc(=O)oc4c3)[C@@H]1C2` [3ab, 7-(2-((1R,5S)-6,6-Dimethylbicyclo[3 1.1]hept-2-en-2-yl)ethoxy)-4-phenyl-2H-chromen-2-one] has an IC50 (Tdp1) of 410 ± 120 nM.
With `CC1(C)[C@H]2CC=C(COc3ccc4c(-c5ccccc5)cc(=O)oc4c3)[C@@H]1C2` [3ac, 7-(((1R,5S)-6,6-Dimethylbicyclo[3.1.1]hept-2-en-2-yl)methoxy)-4-phenyl-2H-chromen-2-one] the IC50 (Tdp1) was 460 ± 160 nM and the “Tdp1 inhibitory activity (in words)” value (Tdp1) was “slightly less active”.
`CC1(C)[C@@H]2CC=C(COc3ccc4c(-c5ccccc5)cc(=O)oc4c3)[C@H]1C2` [3ad, 7-(((1S,5R)-6,6-Dimethylbicyclo[3.1.1]hept-2-en-2-yl)methoxy)-4-phenyl-2H-chromen-2-one] showed an IC50 (Tdp1) of 480 ± 110 nM.
`CC(C)=CCC/C(C)=C/COc1ccc2c(-c3ccc(F)cc3)cc(=O)oc2c1` [3ba, (E)-7-(3,7-Dimethylocta-2,6-dienyloxy)-4-(4-fluorophenyl)-2H-chromen-2-one] was tested, and the prolongation of life (Lewis carcinoma) was 13–19%, the increase in lifespan (Lewis carcinoma; compared with mice receiving only tpc, p = 0.0065) was 26% and the increase in lifespan (Lewis carcinoma; compared with the control group, p = 0.0002) was 42%. The Kd [1] was 63000 ± 11000 nM, the “weight of the ascitic tumor / tumor growth” value (Krebs-2 carcinoma; 3ba 20 mg/kg i.p. + tpc 0.5 mg/kg i.p. (group 5)) was “did not affect tumor growth” and the “weight of the ascitic tumor” value (Krebs-2 carcinoma; 3ba 40 mg/kg i.p. + tpc 0.5 mg/kg i.p. (group 4)) was “decrease in ascites weight, although the difference between groups 2 and 4 was not significant”. For the same molecule, the “weight of the ascitic tumor” value (Krebs-2 carcinoma; 3ba 80 mg/kg i.p. + tpc 0.5 mg/kg i.p. (group 3)) was “significant decrease”, the “weight of the ascitic tumor / tumor growth” value (Krebs-2 carcinoma; 3ba 80 mg/kg i.p. in the absence of tpc (group 6)) was “did not affect tumor growth” and the “number of tumor cells in ascites” value (Krebs-2 carcinoma; tpc 0.5 mg/kg + 3ba 80 mg/kg i.p. (group 3), only one mouse gave ascitic fluid) was 250 mln. For the same molecule, the IC50 (Tdp1) was 620 nM.
`CC1(C)[C@H]2CC=C(CCOc3ccc4c(-c5ccc(F)cc5)cc(=O)oc4c3)[C@@H]1C2` [3bb, 7-(2-((1R,5S)-6,6-Dimethylbicyclo[3.1.1]hept-2-en-2-yl)ethoxy)-4-(4-fluorophenyl)-2H-chromen-2-one] was tested, and the IC50 (Tdp1) was 7500 ± 700 nM and the “Tdp1 inhibitory activity (in words)” value (Tdp1) was “markedly lower activity”.
Molecule `CC1(C)[C@H]2CC=C(COc3ccc4c(-c5ccc(F)cc5)cc(=O)oc4c3)[C@@H]1C2` [3bc, 7-(((1R,5S)-6,6-Dimethylbicyclo[3.1.1]hept-2-en-2-yl)methoxy)-4-(4-fluorophenyl)-2H-chromen-2-one] has an IC50 (Tdp1) of 990 ± 300 nM.
For `CC1(C)[C@@H]2CC=C(COc3ccc4c(-c5ccc(F)cc5)cc(=O)oc4c3)[C@H]1C2` [3bd, 7-(((1S,5R)-6,6-Dimethylbicyclo[3.1.1]hept-2-en-2-yl)methoxy)-4-(4-fluorophenyl)-2H-chromen-2-one], the IC50 (Tdp1) was 1030 ± 580 nM.
`CC(C)=CCC/C(C)=C/COc1ccc2c(-c3ccc(Br)cc3)cc(=O)oc2c1` [3ca, (E)-4-(4-Bromophenyl)-7-(3,7-dimethylocta-2,6-dienyloxy)-2H-chromen-2-one] was tested, and the IC50 (Tdp1) was 900 ± 370 nM.
In the case of `CC1(C)[C@H]2CC=C(CCOc3ccc4c(-c5ccc(Br)cc5)cc(=O)oc4c3)[C@@H]1C2` [3cb, 4-(4-Bromophenyl)-7-(2-((1R,5S)-6,6-dimethylbicyclo[3.1.1]hept-2-en-2-yl)ethoxy)-2H-chromen-2-one], the IC50 (Tdp1) is reported as 590 ± 70 nM.
`CC1(C)[C@H]2CC=C(COc3ccc4c(-c5ccc(Br)cc5)cc(=O)oc4c3)[C@@H]1C2` [3cc, 4-(4-Bromophenyl)-7-(((1R,5S)-6,6-dimethylbicyclo[3.1.1]hept-2-en-2-yl)methoxy)-2H-chromen-2-one] gave an IC50 (Tdp1) of 3230 ± 350 nM.
`CC1(C)[C@@H]2CC=C(COc3ccc4c(-c5ccc(Br)cc5)cc(=O)oc4c3)[C@H]1C2` [3cd, 4-(4-Bromophenyl)-7-(((1S,5R)-6,6-dimethylbicyclo[3.1.1]hept-2-en-2-yl)methoxy)-2H-chromen-2-one] was tested, and the IC50 (Tdp1) was 430 ± 50 nM.
In the case of `COc1ccc(-c2cc(=O)oc3cc(OCCC4=CC[C@H]5C[C@@H]4C5(C)C)ccc23)cc1` [3db, 7-(2-((1R,5S)-6,6-Dimethylbicyclo[3.1.1]hept-2-en-2-yl)ethoxy)-4-(4-methoxyphenyl)-2H-chromen-2-one], the IC50 (Tdp1) is reported as 910 ± 130 nM.
For `COc1ccc(-c2cc(=O)oc3cc(OCC4=CC[C@H]5C[C@@H]4C5(C)C)ccc23)cc1` [3dc, 7-(((1R,5S)-6,6-Dimethylbicyclo[3.1.1]hept-2-en-2-yl)methoxy)-4-(4-methoxyphenyl)-2H-chromen-2-one], the IC50 (Tdp1) was 590 ± 150 nM.
`COc1ccc(-c2cc(=O)oc3cc(OCC4=CC[C@@H]5C[C@H]4C5(C)C)ccc23)cc1` [3dd, 7-(((1S,5R)-6,6-Dimethylbicyclo[3.1.1]hept-2-en-2-yl)methoxy)-4-(4-methoxyphenyl)-2H-chromen-2-one] gave an IC50 (Tdp1) of 590 ± 60 nM.
With `O=c1cc(-c2ccc(Br)cc2)c2ccc(OCc3ccccc3)cc2o1` [10c, 7-(Benzyloxy)-4-(4-bromophenyl)-2H-chromen-2-one] the IC50 (Tdp1) was 2400 ± 800 nM.
For `COc1ccc(-c2cc(=O)oc3cc(OCc4ccccc4)ccc23)cc1` [10d, 7-(Benzyloxy)-4-(4-methoxyphenyl)-2H-chromen-2-one], the IC50 (Tdp1) was 3310 ± 980 nM.
With `CC[C@@]1(O)C(=O)OCc2c1cc1n(c2=O)Cc2cc3c(CN(C)C)c(O)ccc3nc2-1` [tpc, topotecan, reference compound] the prolongation of life (Lewis carcinoma) was 13–19% and the “number of tumor cells in ascites” value (Krebs-2 carcinoma; tpc only, 0.5 mg/kg i.p. (group 2), control 1750 million per mouse) was 950 mln.

From PMC6982354, “Promising New Inhibitors of Tyrosyl-DNA Phosphodiesterase I (Tdp 1) Combining 4-Arylcoumarin and Monoterpenoid Moieties as Components of Complex Antitumor Therapy” (International Journal of Molecular Sciences, 2019)
